pEC50, pIC50: −log10 of the molar value.
How the values were obtained:
[1] = test system: AKT1/2/3 (Ser473) phosphorylation (mTORC2) in MDA-MB-468 cells; assay: Cell based AlphaLISA assay, mTOR kinase cellular assay: inhibition of p-Akt (S473) in MDA-MB-468 cells; conditions: Homo sapiens, read-out: pIC50 for Inhibition of mTORC1 and mTORC2 Substarte Phosphorylation p-AKT1/2/3-(S473) (converted)
Method: Cell Based AlphaLISA Assays for Determining IC50 For Inhibition of P-Akt (S473), P-4E-BP1 (T37/46), and P-P70S6K (T389) in MDA-MB-468 Cells
mTOR Kinase Cellular Assay
To measure functional activity of mTORC1 and mTORC2 in cells the phosphorylation of 4EBP1 (Thr37/46) and P70S6K (Thr389), and AKT1/2/3 (Ser473) was monitored using AlphaLisa SureFire Ultra Kits (Perkin Elmer). MDA-MB-468 cells (ATCC® HTB-132) were cultured in 96-well tissue culture plates and treated with compounds in the disclosure at concentrations varying from 0.017-1,000 nM for two to four hours at 37° C. Incubations were terminated by removal of the assay buffer and addition of lysis buffer provided with the assay kit. Samples were processed according to the manufacturer's instructions. The Alpha signal from the respective phosphoproteins was measured in duplicate using a microplate reader (Envision, Perkin-Elmer or Spectramax M5, Molecular Devices). Inhibitor concentration response curves were analyzed using normalized IC50 regression curve fitting with control based normalization.

[2] = test system: AsPC-1 (K-Ras G12D); assay: CellTiter-Glo cell viability assay; assay type: cell-based; conditions: Homo sapiens, ASPC1, 120 h, read-out: AsPC-1 Cell Viability assay data IC50, K-Ras G12D, 5-day treatment
How it was run: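 Luminescence from CellTiter-Glo serves as the viability read-out after cells are treated with compound for 5 days. Each well's signal is divided by the DMSO average and multiplied by 100, and curves are fitted by four-parameter logistic regression.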

[3] = target: KRAS G12C (Homo sapiens, UniProt P01116+P62937, G12C); assay: Ras-Raf disruption / FRET / MOA assay (BRAF RBD); assay type: biochemical; conditions: KRAS G12C FRET data IC50, Ras-Raf disruption, with Cyclophilin A
Sequence of KRAS G12C (P01116 1-169 isoform P01116-2 G12C limits assumed): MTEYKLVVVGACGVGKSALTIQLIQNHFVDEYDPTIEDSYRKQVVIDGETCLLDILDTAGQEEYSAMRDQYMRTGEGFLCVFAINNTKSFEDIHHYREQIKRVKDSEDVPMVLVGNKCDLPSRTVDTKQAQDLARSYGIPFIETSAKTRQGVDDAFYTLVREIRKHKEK
Sequence of KRAS G12C (P62937 whole entry): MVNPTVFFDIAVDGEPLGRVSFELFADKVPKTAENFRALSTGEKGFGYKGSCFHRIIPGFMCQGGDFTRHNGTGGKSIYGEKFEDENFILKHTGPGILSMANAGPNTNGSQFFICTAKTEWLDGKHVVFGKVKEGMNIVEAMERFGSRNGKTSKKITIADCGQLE
How it was run: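 His6-K-Ras G12C-GMPPNP (12.5 nM), GST-BRAF RBD (50 nM) and tagless Cyclophilin A (25 μM) incubated 3 h at 25 °C with compound (10-point 3-fold series from 30 μM), pH 7.3 HEPES buffer. Anti-His Eu/anti-GST APC added for 1.5 h; decreased TR-FRET ratio vs DMSO gives IC50.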

[4] = test system: AsPC-1 (K-Ras G12D); assay: Potency assay: pERK; assay type: cell-based; conditions: Homo sapiens, ASPC1, read-out: pERK EC50
[5] = target: NRAS Q61R (Homo sapiens, UniProt P01111+P62937, Q61R); assay: Ras-Raf disruption / FRET / MOA assay (BRAF RBD); assay type: biochemical
Sequence of NRAS Q61R (P01111 whole entry Q61R): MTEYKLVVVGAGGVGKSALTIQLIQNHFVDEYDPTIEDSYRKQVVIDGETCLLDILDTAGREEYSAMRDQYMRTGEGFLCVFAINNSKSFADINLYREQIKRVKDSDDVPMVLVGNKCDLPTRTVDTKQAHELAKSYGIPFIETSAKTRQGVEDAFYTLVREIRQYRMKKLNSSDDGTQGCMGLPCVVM
Sequence of NRAS Q61R (P62937 whole entry): as the sequence (P62937 whole entry) above
How it was run: (§1)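 TR-FRET in 25 mM HEPES pH 7.3, 100 mM NaCl, 5 mM MgCl2, 0.1% BSA, 0.002% Tween20 with 25 μM Cyclophilin A, 12.5 nM His6-Ras-GMPPNP, 50 nM GST-BRAF RBD; compound 10-point 3-fold series from 30 μM. After 3 h at 25 °C, Eu anti-His/APC anti-GST added for 1.5 h; IC50 from ratio decrease versus DMSO.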

[6] = target: NRAS Q61K (Homo sapiens, UniProt P01111+P62937, Q61K); assay: Ras-Raf disruption / FRET / MOA assay (BRAF RBD); assay type: biochemical
Sequence of NRAS Q61K (P01111 whole entry Q61K): as the sequence (P01111 whole entry Q61R) above, with R61K counted along it
Sequence of NRAS Q61K (P62937 whole entry): as the sequence (P62937 whole entry) above
How it was run: as §1

[7] = target: KRAS G12S (Homo sapiens, UniProt P01116+P62937, G12S); assay: Ras-Raf disruption / FRET / MOA assay (BRAF RBD); assay type: biochemical; conditions: KRAS G12S FRET data IC50, Ras-Raf disruption, with Cyclophilin A
Sequence of KRAS G12S (P01116 1-169 isoform P01116-2 G12S limits assumed): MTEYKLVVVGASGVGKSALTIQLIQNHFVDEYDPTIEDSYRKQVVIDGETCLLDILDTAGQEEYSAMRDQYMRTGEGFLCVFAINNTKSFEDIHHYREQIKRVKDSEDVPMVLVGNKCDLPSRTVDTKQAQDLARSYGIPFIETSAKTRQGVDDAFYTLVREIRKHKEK
Sequence of KRAS G12S (P62937 whole entry): as the sequence (P62937 whole entry) above
How it was run: as §1

[8] = target: KRAS WT (Homo sapiens, UniProt P01116+P62937); assay: Ras-Raf disruption / FRET / MOA assay (BRAF RBD); assay type: biochemical; conditions: KRAS WT FRET data IC50, Ras-Raf disruption, with Cyclophilin A
Sequence of KRAS WT (P01116 1-169 isoform P01116-2 limits assumed): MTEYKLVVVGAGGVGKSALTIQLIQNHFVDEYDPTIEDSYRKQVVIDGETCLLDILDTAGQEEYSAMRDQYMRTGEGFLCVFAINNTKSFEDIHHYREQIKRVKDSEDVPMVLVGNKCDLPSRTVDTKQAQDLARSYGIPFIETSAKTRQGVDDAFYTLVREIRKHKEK
Sequence of KRAS WT (P62937 whole entry): as the sequence (P62937 whole entry) above
How it was run: as §1

[9] = target: NRAS G12C (Homo sapiens, UniProt P01111+P62937, G12C); assay: Ras-Raf disruption / FRET / MOA assay (BRAF RBD); assay type: biochemical; conditions: NRAS G12C FRET data IC50, NRAS G12C
Sequence of NRAS G12C (P01111 whole entry G12C): as the sequence (P01111 whole entry Q61R) above, with G12C, R61Q counted along it
Sequence of NRAS G12C (P62937 whole entry): as the sequence (P62937 whole entry) above
How it was run: as §1

[10] = target: KRAS G13C (Homo sapiens, UniProt P01116+P62937, G13C); assay: Ras-Raf disruption / FRET / MOA assay (BRAF RBD); assay type: biochemical; conditions: KRAS G13C FRET data IC50, Ras-Raf disruption, with Cyclophilin A
Sequence of KRAS G13C (P01116 1-169 isoform P01116-2 G13C limits assumed): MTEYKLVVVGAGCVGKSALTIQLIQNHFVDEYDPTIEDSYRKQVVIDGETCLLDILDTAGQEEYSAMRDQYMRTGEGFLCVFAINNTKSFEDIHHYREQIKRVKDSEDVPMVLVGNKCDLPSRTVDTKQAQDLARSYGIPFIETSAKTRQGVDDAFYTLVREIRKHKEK
Sequence of KRAS G13C (P62937 whole entry): as the sequence (P62937 whole entry) above
How it was run: as §1

[11] = target: KRAS G12V (Homo sapiens, UniProt P01116+P62937, G12V); assay: Ras-Raf disruption / FRET / MOA assay (BRAF RBD); assay type: biochemical; conditions: KRAS G12V FRET data IC50, Ras-Raf disruption, with Cyclophilin A
Sequence of KRAS G12V (P01116 1-169 isoform P01116-2 G12V limits assumed): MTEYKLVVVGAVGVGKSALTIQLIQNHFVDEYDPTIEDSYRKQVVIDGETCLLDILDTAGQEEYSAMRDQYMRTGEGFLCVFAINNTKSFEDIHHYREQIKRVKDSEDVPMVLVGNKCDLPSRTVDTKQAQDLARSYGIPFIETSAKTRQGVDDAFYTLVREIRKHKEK
Sequence of KRAS G12V (P62937 whole entry): as the sequence (P62937 whole entry) above
How it was run: as §1

[12] = target: KRAS Q61H (Homo sapiens, UniProt P01116+P62937, Q61H); assay: Ras-Raf disruption / FRET / MOA assay (BRAF RBD); assay type: biochemical
Sequence of KRAS Q61H (P01116 1-169 isoform P01116-2 Q61H limits assumed): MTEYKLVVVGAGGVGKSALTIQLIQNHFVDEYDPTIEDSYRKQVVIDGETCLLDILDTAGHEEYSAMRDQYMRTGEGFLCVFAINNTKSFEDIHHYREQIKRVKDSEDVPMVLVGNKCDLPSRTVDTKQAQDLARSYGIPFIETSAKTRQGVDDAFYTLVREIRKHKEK
Sequence of KRAS Q61H (P62937 whole entry): as the sequence (P62937 whole entry) above
How it was run: as §1

[13] = target: KRAS G13D (Homo sapiens, UniProt P01116+P62937, G13D); assay: Ras-Raf disruption / FRET / MOA assay (BRAF RBD); assay type: biochemical; conditions: KRAS G13D FRET data IC50, Ras-Raf disruption, with Cyclophilin A
Sequence of KRAS G13D (P01116 1-169 isoform P01116-2 G13D limits assumed): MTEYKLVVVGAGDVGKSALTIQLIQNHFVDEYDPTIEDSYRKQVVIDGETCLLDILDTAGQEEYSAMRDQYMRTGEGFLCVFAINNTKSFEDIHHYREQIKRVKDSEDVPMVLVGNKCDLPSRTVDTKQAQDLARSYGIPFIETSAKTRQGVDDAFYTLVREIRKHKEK
Sequence of KRAS G13D (P62937 whole entry): as the sequence (P62937 whole entry) above
How it was run: as §1

[14] = target: NRAS WT (Homo sapiens, UniProt P01111+P62937); assay: Ras-Raf disruption / FRET / MOA assay (BRAF RBD); assay type: biochemical
Sequence of NRAS WT (P01111 whole entry): as the sequence (P01111 whole entry Q61R) above, with R61Q counted along it
Sequence of NRAS WT (P62937 whole entry): as the sequence (P62937 whole entry) above
How it was run: as §1

[15] = target: KRAS G12D (Homo sapiens, UniProt P01116+P62937, G12D); assay: Ras-Raf disruption / FRET / MOA assay (BRAF RBD); assay type: biochemical; conditions: KRAS G12D FRET data IC50, Ras-Raf disruption, with Cyclophilin A
Sequence of KRAS G12D (P01116 1-169 isoform P01116-2 G12D limits assumed): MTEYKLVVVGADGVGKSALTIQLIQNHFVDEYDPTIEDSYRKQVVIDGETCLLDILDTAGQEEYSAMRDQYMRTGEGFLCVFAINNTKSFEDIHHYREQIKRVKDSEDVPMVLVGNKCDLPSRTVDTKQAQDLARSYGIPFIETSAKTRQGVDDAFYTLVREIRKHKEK
Sequence of KRAS G12D (P62937 whole entry): as the sequence (P62937 whole entry) above
How it was run: as §1

## CO[C@H]1C[C@@H]2CC[C@@H](C)[C@@](O)(O2)C(=O)C(=O)N2CCCC[C@H]2C(=O)O[C@H]([C@H](C)C[C@@H]2CC[C@@H](OC(=O)NCc3cnc(N4CCN(c5ncc(C(=O)NCCOCCOCCOCCOCCC(=O)N6CCc7cc(Cn8nc(-c9cnc%10[nH]ccc%10c9)c9c(N)ncnc98)ccc7C6)cn5)CC4CO)nc3)[C@H](OC)C2)CC(=O)[C@H](C)/C=C(\C)[C@@H](O)[C@@H](OC)C(=O)[C@H](C)C[C@H](C)/C=C/C=C/C=C/1C (stereo partly drawn) [Example 41]
[1]
  IC50: > 1000 nM

## CO[C@H]1C[C@@H]2CC[C@@H](C)[C@@](O)(O2)C(=O)C(=O)N2CCCC[C@H]2C(=O)O[C@H]([C@H](C)C[C@@H]2CC[C@@H](OC(=O)NCc3cnc(N4CCN(c5ncc(C(=O)NCCOCCC(=O)N6CCN(c7ncc(C(=O)NCCCCn8nc(-c9ccc%10oc(N)nc%10c9)c9c(N)ncnc98)cn7)CC6)cn5)CC4)nc3)[C@H](OC)C2)CC(=O)[C@H](C)/C=C(\C)[C@@H](O)[C@@H](OC)C(=O)[C@H](C)C[C@H](C)/C=C/C=C/C=C/1C [Example 53]
[1]
  IC50: 3.16 to 31.6 nM

## CO[C@H]1C[C@@H]2CC[C@@H](C)[C@@](O)(O2)C(=O)C(=O)N2CCCC[C@H]2C(=O)O[C@H]([C@H](C)C[C@@H]2CC[C@@H](OC(=O)NCCOCCOCCOCCOCCOCCOCCOCCOCC(=O)N3CCc4cc(Cn5nc(-c6ccc7oc(N)nc7c6)c6c(N)ncnc65)ccc4C3)[C@H](OC)C2)C[C@@H](O)[C@H](C)/C=C(\C)[C@@H](O)[C@@H](OC)C(=O)[C@H](C)C[C@H](C)/C=C/C=C/C=C/1C [Example 72]
[1]
  IC50: ≤ 3.16 nM

## CO[C@H]1C[C@@H]2CC[C@@H](C)[C@@](O)(O2)C(=O)C(=O)N2CCCC[C@H]2C(=O)O[C@H]([C@H](C)C[C@@H]2CC[C@@H](OC(=O)NCCOCCOCCOCCOCCOCCOCCOCCOCCC(=O)NCc3ccc(Cn4nc(-c5ccc6oc(N)nc6c5)c5c(N)ncnc54)cc3)[C@H](OC)C2)CC(=O)[C@H](C)/C=C(\C)[C@@H](O)[C@@H](OC)C(=O)[C@H](C)C[C@H](C)/C=C/C=C/C=C/1C [Example 79]
[1]
  IC50: 31.6 to 1000 nM

## CO[C@H]1C[C@@H]2CC[C@@H](C)[C@@](O)(O2)C(=O)C(=O)N2CCCC[C@H]2C(=O)O[C@H]([C@H](C)C[C@@H]2CC[C@@H](OC(=O)N3CCc4nc(N5CCN(C(=O)CCOCCN6CCN(c7ncc(C(=O)N8CCc9cc(Cn%10nc(-c%11ccc%12oc(N)nc%12c%11)c%11c(N)ncnc%11%10)ccc9C8)cn7)CC6)CC5)ncc4C3)[C@H](OC)C2)C[C@@H](OC)[C@H](C)/C=C(\C)[C@@H](O)[C@@H](OC)C(=O)[C@H](C)C[C@H](C)/C=C/C=C/C=C/1C [Example 114]
[1]
  IC50: > 1000 nM

## CO[C@H]1C[C@@H]2CC[C@@H](C)[C@@](O)(O2)C(=O)C(=O)N2CCCC[C@H]2C(=O)O[C@H]([C@H](C)C[C@@H]2CC[C@@H](OC(=O)NCc3cnc(N4CCN(C(=O)CCOCCN5CCN(c6ncc(C(=O)N7CCc8cc(Cn9nc(-c%10ccc%11oc(N)nc%11c%10)c%10c(N)ncnc%109)ccc8C7)cn6)CC5)CC4)nc3)[C@H](OC)C2)CC[C@H](C)/C=C(\C)[C@@H](O)[C@@H](OC)C(=O)[C@H](C)C[C@H](C)/C=C/C=C/C=C/1C [Example 115]
[1]
  IC50: ≤ 3.16 nM

## CO[C@H]1C[C@@H]2CC[C@@H](C)[C@@](O)(O2)C(=O)C(=O)N2CCCC[C@H]2C(=O)O[C@H]([C@H](C)C[C@@H]2CC[C@@H](OC(=S)NCc3cnc(N4CCN(C(=O)CCOCCN5CCN(c6ncc(C(=O)N7CCc8cc(Cn9nc(-c%10ccc%11oc(N)nc%11c%10)c%10c(N)ncnc%109)ccc8C7)cn6)CC5)CC4)nc3)[C@H](OC)C2)CC(=O)[C@H](C)/C=C(\C)[C@@H](O)[C@@H](OC)C(=O)[C@H](C)C[C@H](C)/C=C/C=C/C=C/1C [Example 116]
[1]
  IC50: > 1000 nM

## CO[C@H]1C[C@@H]2CC[C@@H](C)[C@@](O)(O2)C(=O)C(=O)N2CCCC[C@H]2C(=O)O[C@H]([C@H](C)C[C@@H]2CC[C@@H](OC(=S)NCc3cnc(N4CCN(C(=O)CCOCCN5CCN(c6ncc(C(=O)N7CCc8cc(Cn9nc(-c%10ccc%11oc(N)nc%11c%10)c%10c(N)ncnc%109)ccc8C7)cn6)CC5)CC4)nc3)[C@H](OC)C2)C[C@@H](OC)[C@H](C)/C=C(\C)[C@@H](O)[C@@H](OC)C(=O)[C@H](C)C[C@H](C)/C=C/C=C/C=C/1C [Example 118]
[1]
  IC50: 3.16 to 31.6 nM

## CO[C@H]1C[C@@H]2CC[C@@H](C)[C@@](O)(O2)C(=O)C(=O)N2CCCC[C@H]2C(=O)O[C@H]([C@H](C)C[C@@H]2CC[C@@H](OC(=O)NCc3cnc(N4CCN(C(=O)CCOCCN5CCN(c6ncc(C(=O)NCCS(=O)(=O)c7ccc(C(=O)N8CCOc9ccc(-c%10ccc(N)nc%10)cc9C8)c(C)c7F)cn6)CC5)CC4)nc3)[C@H](OC)C2)C[C@@H](OC)[C@H](C)/C=C(\C)[C@@H](O)[C@@H](OC)C(=O)[C@H](C)C[C@H](C)/C=C/C=C/C=C/1C [Example 120]
[1]
  IC50: 3.16 to 31.6 nM

## CO[C@H]1C[C@@H]2CC[C@@H](C)[C@@](O)(O2)C(=O)C(=O)N2CCCC[C@H]2C(=O)O[C@H]([C@H](C)C[C@@H]2CC[C@@H](OC(=O)NCc3cnc(N4CCN(C(=O)CCOCCN5CCN(c6ncc(C(=O)NCCS(=O)(=O)c7ccc(C(=O)N8CCOc9ccc(-c%10ccc(N)nc%10)cc9C8)c(C)c7)cn6)CC5)CC4)nc3)[C@H](OC)C2)CC(=O)[C@H](C)/C=C(\C)[C@@H](O)[C@@H](OC)C(=O)[C@H](C)C[C@H](C)/C=C/C=C/C=C/1C [Example 121]
[1]
  IC50: > 1000 nM

## CCn1c(-c2cccnc2[C@H](C)OC)c2c3cc(ccc31)-c1cc(O)cc(c1)C[C@H](NC(=O)[C@H](C(C)C)N(C)C(=O)CN(C)C(=O)[C@H]1N[C@@H]1C1COC1)C(=O)N1CCC[C@H](N1)C(=O)OCC(C)(C)C2 [Example 284]
[2]
  pIC50: 5.00 to 6.00
[3]
  pIC50: 7.00 to 8.00
[4]
  pEC50: > 5.30
[5]
  pIC50: 6.00 to 7.00
[6]
  pIC50: 6.00 to 7.00
[7]
  pIC50: 7.00 to 8.00
[8]
  pIC50: 7.00 to 8.00
[9]
  pIC50: > 8.00
[10]
  pIC50: > 8.00
[11]
  pIC50: 7.00 to 8.00
[12]
  pIC50: 7.00 to 8.00
[13]
  pIC50: 7.00 to 8.00
[14]
  pIC50: 7.00 to 8.00
[15]
  pIC50: 7.00 to 8.00

Reference: patent publication US20230233569A1 (Revolution Medicines, Inc., priority 2020, published 2023)
